Assay results: patent publication US20240390298A1, “CYCLOHEXYL BETA-HYDROXY ALKYL AMINES AND MEDICAL USES THEREOF” (ATROGI AB, priority 2021, published 2024)

Experiments:
[1] = system: L6-myotubes; test: Glucose uptake in differentiated L6-myotubes (3H-2-deoxyglucose), compared to isoproterenol; assay type: cell-based; conditions: agonist 1×10^−5 M, 50 nM 3H-2-deoxyglucose; for Emax at 10 µM: read-out: Biological example 1: glucose uptake, activity compared to that of isoproterenol
Outline: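 Serum-starved differentiated L6 myotubes stimulated with agonist at 1×10^−5 M for 1 h 40 min, re-dosed in glucose-free medium for 20 min, then given 50 nM ^3H-2-deoxyglucose for 10 min. Uptake read by β-counting of NaOH lysates; activity expressed relative to isoproterenol.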

[2] = system: L6-myotubes; test: Measurement of intracellular cAMP levels in differentiated L6 cells (alpha screen cAMP kit), compared to isoproterenol; assay type: cell-based; conditions: Rattus norvegicus, L6, 0.25 h, agonist 1×10^−5 M, 15 min, read-out: Biological example 2: intracellular cAMP levels, activity compared to that of isoproterenol
Outline: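 L6 myoblasts were differentiated into myotubes over 7 days in 2% FBS, then serum-starved overnight. Agonist at 1×10^−5 M final was applied for 15 min in HBSS with 1% BSA, 5 mM HEPES and 1 mM IBMX, pH 7.4. After ethanol extraction and lysis, cAMP was quantified by AlphaScreen, with activity expressed relative to isoproterenol.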

SMILES	Biological example 1: glucose uptake, activity compared to that of isoproterenol [1]	Emax at 10 µM [2] [%]	Emax at 10 µM [1] [%]
CC(=O)N[C@H]1CC[C@H](CC(C)(C)NC[C@H](O)c2cncc(F)c2)CC1 [Example 87, N-((1R,4r)-4-(2-(((R)-2-(5-Fluoropyridin-3-yl)-2-hydroxyethyl)amino)-2-methylpropyl)cyclohexyl)acetamide]	+ + +	< 25	
CC(C)(C[C@H]1CC[C@H](NS(C)(=O)=O)CC1)NC[C@H](O)c1cncc(F)c1 [Example 89, N-((1R,4r)-4-(2-(((R)-2-(5-Fluoropyridin-3-yl)-2-hydroxyethyl)amino)-2-methylpropyl)cyclohexyl)methanesulfonamide]	+ + +	< 25	
CC(C)(CC[C@H]1CC[C@H](N)CC1)NC[C@H](O)c1cncc(F)c1 [Example 92, (R)-2-((4-((1r,4S)-4-Aminocyclohexyl)-2-methylbutan-2-yl)amino)-1-(5-fluoropyridin-3-yl)ethan-1-ol]		< 25	25 to 50
CC(=O)N[C@H]1CC[C@H](CCC(C)(C)NC[C@H](O)c2cncc(F)c2)CC1 [Example 93, N-((1S,4r)-4-(3-(((R)-2-(5-Fluoropyridin-3-yl)-2-hydroxyethyl)amino)-3-methylbutyl)cyclohexyl)acetamide]	+ + +	< 25	
CC(C)(CC[C@H]1CC[C@H](NS(C)(=O)=O)CC1)NC[C@H](O)c1cncc(F)c1 [Example 94, N-((1S,4r)-4-(3-(((R)-2-(5-Fluoropyridin-3-yl)-2-hydroxyethyl)amino)-3-methylbutyl)cyclohexyl)methanesulfonamide]	+ +	< 25	
CC(C)(NC[C@H](O)c1cncc(F)c1)[C@H]1CC[C@@H](C(=O)O)CC1 [Example 97, (1S,4s)-4-(2-(((R)-2-(5-Fluoropyridin-3-yl)-2-hydroxyethyl)amino)propan-2-yl)cyclohexane-1-carboxylic acid]		25 to 50	25 to 50
CC(C)(NC[C@H](O)c1cccc(F)c1)[C@H]1CC[C@@H](C(=O)O)CC1 [Example 98, (1S,4s)-4-(2-(((R)-2-(3-Fluorophenyl)-2-hydroxyethyl)amino)propan-2-yl)-cyclohexane-1-carboxylic acid]		< 25	25 to 50
COC(=O)[C@H]1CC[C@H](C(C)(C)NC[C@H](O)c2cccc(F)c2)CC1 [Example 99, Methyl (1R,4r)-4-(2-(((R)-2-(3-fluorophenyl)-2-hydroxyethyl)amino)propan-2-yl)cyclohexane-1-carboxylate]	+ + +	< 25	
COC(=O)[C@H]1CC[C@H](C(C)(C)NC[C@H](O)c2cncc(F)c2)CC1 [Example 100, Methyl (1R,4r)-4-(2-(((R)-2-(5-fluoropyridin-3-yl)-2-hydroxyethyl)amino)-propan-2-yl)cyclohexane-1-carboxylate]	+ + +	< 25	
CC(C)(NC[C@H](O)c1cccc(F)c1)[C@H]1CC[C@H](C(=O)O)CC1 [Example 101, (1R,4r)-4-(2-(((R)-2-(3-Fluorophenyl)-2-hydroxyethyl)amino)propan-2-yl)cyclohexane-1-carboxylic acid]		< 25	< 25
COC(=O)[C@H]1CC[C@@H](CC(C)(C)NC[C@H](O)c2cccc(F)c2)CC1 [Example 103, Methyl (1S,4s)-4-(2-(((R)-2-(3-fluorophenyl)-2-hydroxyethyl)amino)-2-methylpropyl)cyclohexane-1-carboxylate]	+ + +	< 25	
COC(=O)[C@H]1CC[C@@H](CC(C)(C)NC[C@H](O)c2cncc(F)c2)CC1 [Example 104, Methyl (1S,4s)-4-(2-(((R)-2-(5-fluoropyridin-3-yl)-2-hydroxyethyl)amino)-2-methylpropyl)cyclohexane-1-carboxylate]	+ + +	< 25	
CC(C)(C[C@H]1CC[C@@H](C(=O)O)CC1)NC[C@H](O)c1cccc(F)c1 [Example 105, (1S,4s)-4-(2-(((R)-2-(3-Fluorophenyl)-2-hydroxyethyl)amino)-2-methylpropyl)cyclohexane-1-carboxylic acid]		< 25	25 to 50
CC(C)(C[C@H]1CC[C@@H](C(=O)O)CC1)NC[C@H](O)c1cncc(F)c1 [Example 106, (1S,4s)-4-(2-(((R)-2-(5-Fluoropyridin-3-yl)-2-hydroxyethyl)amino)-2-methylpropyl)cyclohexane-1-carboxylic acid]		< 25	25 to 50
COC(=O)[C@H]1CC[C@H](CC(C)(C)NC[C@H](O)c2cncc(F)c2)CC1 [Example 108, Methyl (1R,4r)-4-(2-(((R)-2-(5-fluoropyridin-3-yl)-2-hydroxyethyl)amino)-2-methylpropyl)cyclohexane-1-carboxylate]	+ +	< 25	
CC(C)(C[C@H]1CC[C@H](C(=O)O)CC1)NC[C@H](O)c1cccc(F)c1 [Example 109, (1R,4r)-4-(2-(((R)-2-(3-fluorophenyl)-2-hydroxyethyl)amino)-2-methyl-propyl)cyclohexane-1-carboxylic acid acetate]	+ +	< 25	
CC(C)(C[C@H]1CC[C@H](C(=O)O)CC1)NC[C@H](O)c1cncc(F)c1 [Example 110, (1R,4r)-4-(2-(((R)-2-(5-fluoropyridin-3-yl)-2-hydroxyethyl)amino)-2-methylpropyl)cyclohexane-1-carboxylic acid acetate]		< 25	< 25
COC(=O)[C@H]1CC[C@@H](CCC(C)(C)NC[C@H](O)c2cccc(F)c2)CC1 [Example 111, Methyl (1S,4s)-4-(3-(((R)-2-(3-fluorophenyl)-2-hydroxyethyl)amino)-3-methylbutyl)cyclohexane-1-carboxylate]	+ + +	25 to 50	
CC(C)(CC[C@H]1CC[C@@H](C(=O)O)CC1)NC[C@H](O)c1cccc(F)c1 [Example 113, (1S,4s)-4-(3-(((R)-2-(3-Fluorophenyl)-2-hydroxyethyl)amino)-3-methyl-butyl)cyclohexane-1-carboxylic acid]		< 25	25 to 50
CC(C)(CC[C@H]1CC[C@@H](C(=O)O)CC1)NC[C@H](O)c1cncc(F)c1 [Example 114, (1S,4s)-4-(3-(((R)-2-(5-Fluoropyridin-3-yl)-2-hydroxyethyl)amino)-3-methylbutyl)cyclohexane-1-carboxylic acid]	+ + +	< 25	
COC(=O)[C@H]1CC[C@H](CCC(C)(C)NC[C@H](O)c2cccc(F)c2)CC1 [Example 115, Methyl (1R,4r)-4-(3-(((R)-2-(3-fluorophenyl)-2-hydroxyethyl)amino)-3-methylbutyl)cyclohexane-1-carboxylate]	+ + +	< 25	
